Experimental data: BindingDB's records for doi:10.1002/1098-2396(20001215)38:4 (University of North Texas, 2000)

Target: D(2) dopamine receptor (Rattus norvegicus, UniProt P61169)
Sequence (P61169 whole entry): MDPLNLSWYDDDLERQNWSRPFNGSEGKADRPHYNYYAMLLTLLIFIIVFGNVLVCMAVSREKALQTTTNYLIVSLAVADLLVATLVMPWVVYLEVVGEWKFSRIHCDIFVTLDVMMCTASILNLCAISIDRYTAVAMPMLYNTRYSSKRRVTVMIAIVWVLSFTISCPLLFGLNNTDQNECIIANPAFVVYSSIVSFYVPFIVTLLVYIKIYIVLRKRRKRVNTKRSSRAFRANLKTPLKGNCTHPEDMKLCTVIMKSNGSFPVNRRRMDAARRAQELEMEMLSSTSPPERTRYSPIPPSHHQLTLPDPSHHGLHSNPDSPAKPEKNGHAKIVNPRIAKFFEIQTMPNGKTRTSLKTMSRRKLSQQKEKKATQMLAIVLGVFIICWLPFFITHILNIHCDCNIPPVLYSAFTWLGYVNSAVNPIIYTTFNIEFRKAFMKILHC

Ki [µM]	Compound
1.77	Cc1ccc(N(CC2=NCCN2)c2cccc(O)c2)cc1 [SMR000059054]
2.71	O=C(c1ccc(F)cc1)C1CCN(CCn2c(=O)[nH]c3ccccc3c2=O)CC1 [3-(2-{4-[(4-fluorophenyl)carbonyl]piperidin-1-yl}ethyl)-1,2,3,4-tetrahydroquinazoline-2,4-dione]

Compound	Ki [µM]
CC(C)NCC(O)COc1cccc2[nH]ccc12 (stereo not drawn) [LB-46]	> 10
